Laboratory results as given in article PMC9262897, “Low-cost anti-mycobacterial drug discovery using engineered E. coli” (Nature Communications, 2022).

Tests used:
[1] = target: T1, Mtb alanine racemase (Alr) (Mycobacterium tuberculosis, UniProt P9WQA9)
[2] = target: T1, Mtb alanine racemase (Alr); assay: […]; Michaelis-Menten kinetics; format: biochemical

T1 sequence (P9WQA9 whole entry): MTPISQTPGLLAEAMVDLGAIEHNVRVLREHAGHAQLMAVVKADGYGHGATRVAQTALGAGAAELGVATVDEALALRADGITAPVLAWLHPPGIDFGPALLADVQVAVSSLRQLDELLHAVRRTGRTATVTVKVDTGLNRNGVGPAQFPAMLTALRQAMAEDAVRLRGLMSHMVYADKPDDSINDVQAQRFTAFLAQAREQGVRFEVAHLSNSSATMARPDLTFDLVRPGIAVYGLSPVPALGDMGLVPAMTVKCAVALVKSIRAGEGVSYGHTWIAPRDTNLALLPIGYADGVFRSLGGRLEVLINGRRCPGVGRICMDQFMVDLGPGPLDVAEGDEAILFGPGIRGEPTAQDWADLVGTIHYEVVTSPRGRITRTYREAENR

| SMILES | Michaelis-Menten kinetics of purified Alr in the coupled NADH fluorescence assay [1] | IC50 [2] |
| --- | --- | --- |
| C[C@@H](N)C(=O)O [D-alanine] | Varying the concentration of D-alanine yielded conventional Michaelis–Menten kinetics for Alr |  |
| CCOC(=O)[C@H](CCc1ccccc1)N[C@H]1CCc2ccccc2N(CC(=O)O)C1=O [benazepril] |  | 300 µM |
